Measured values as given in US20260274922A1, “SYNTHETIC ESTROGEN RECEPTOR (ER)-DERIVED PEPTIDE” (THE TEXAS A&M UNIVERSITY SYSTEM, priority 2023, published 2026).
Where no end group is shown, it is not given here. The star is where a group is joined. FITC = O=C1OC2(c3ccc(O)cc3Oc3cc(O)ccc32)c2ccc(NC(=S)*)cc21

How the values were obtained:
IRS1 protein domains = target: T1, IRS1 protein domains (Homo sapiens, UniProt P35568); test: AF1 peptide and IRS1 protein interaction (co-immunoprecipitation, FITC signal); type: binding; conditions: HEK293 cells, 10 μM FITC-labelled peptide 3 h
T1 construct: expressed in transfected cells; host or cells: HEK293
T1 sequence (P35568 1-300): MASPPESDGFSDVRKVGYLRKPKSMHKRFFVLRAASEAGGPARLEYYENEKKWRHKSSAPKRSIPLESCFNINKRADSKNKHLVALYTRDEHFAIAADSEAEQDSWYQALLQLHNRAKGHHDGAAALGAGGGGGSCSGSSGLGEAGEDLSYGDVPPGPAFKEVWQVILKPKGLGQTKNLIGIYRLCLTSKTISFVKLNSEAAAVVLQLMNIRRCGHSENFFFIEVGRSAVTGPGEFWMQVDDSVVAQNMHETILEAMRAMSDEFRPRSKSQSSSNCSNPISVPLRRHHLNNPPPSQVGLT
Experimental: AF1 peptide and IRS1 protein interaction. HEK293 cells were transfected with Flag-IRS1 or Flag-IRS1 truncated domains using lipofectamine 3000 for 30 h, followed by treatment of 10 μM control and AF1 peptides labelled with FITC fluorescence for 3 h. After 10 μM MG132 treatment for 1 h, cell protein was extracted, and Flag-labelled proteins were immunoprecipitated. The intensity of control and AF1 peptide was calculated through measuring FITC fluorescence signal with multiplex reader. The results were normalized using IgG group.

[1] = system: insulin signaling (IRS1, pAKT); test: Insulin sensitivity in WT primary mouse hepatocytes (IRS1, insulin-stimulated AKT phosphorylation); type: cell-based
Experimental: (§1) Primary hepatocytes isolation and cell culture. Primary hepatocytes were isolated. Male mice at age of 8-12 weeks were infused with a perfusion buffer A (calcium and magnesium-free HBSS supplemented with 10 mM HEPES, […], 1 mM glucose, and 1% penicillin-streptomycin, pH 7.4) through portal vein for 6-8 min. Then perfusion buffer A was changed to buffer B (calcium and magnesium-free HBSS supplemented with 10 mM HEPES, 1 mM CaCl2), 1 mM glucose, 1% penicillin-streptomycin, and 0.5 mg/mL collagenase II, pH 7.4). […] Liver cells were suspended and passed through a 70 μm cell strainer, followed by centrifuge at 1700 rpm for 2 min. Pellets were resuspended with Percoll at final concentration of 36% and centrifuged at 1800 rpm for 6 min. The hepatocyte pellet was washed and suspended with DMEM supplemented with 10% FBS and 1% penicillin-streptomycin in collagen-coated plates. The HepG2 cell line was purchased from Abcam and cultured with DMEM medium supplemented with 10% FBS and 1% penicillin-streptomycin in collagen-coated plates. The human embryo kidney (HEK) 293 cell line was purchased from Sigma and cultured with DMEM medium supplemented with 10% FBS and 1% penicillin-streptomycin. FBS-free DMEM medium was used to culture cells during the experiments.
(§2) Co-immunoprecipitation and Western blotting analysis. […] Protein bands were detected using a ChemiDoc image system.

[2] = system: insulin signaling (IRS1, pAKT); test: Insulin sensitivity in ERα deficient primary mouse hepatocytes; type: cell-based
Experimental: as §1, §2

IRS1 = target: T2, IRS1 (Mus musculus, UniProt P35569); test: Effect of AF1 peptide on IRS1 phosphorylation at S302 in primary mouse hepatocytes (Western blot); type: cell-based; conditions: WT primary hepatocytes
T2 construct: increased IRS1 protein levels by 50% (p<0.05) in WT primary hepatocytes; endogenous in cells; host or cells: primary mouse hepatocytes (C57BL/6J background; WT, ERα F/F or ERα LivKO)
T2 sequence (P35569 1-1233): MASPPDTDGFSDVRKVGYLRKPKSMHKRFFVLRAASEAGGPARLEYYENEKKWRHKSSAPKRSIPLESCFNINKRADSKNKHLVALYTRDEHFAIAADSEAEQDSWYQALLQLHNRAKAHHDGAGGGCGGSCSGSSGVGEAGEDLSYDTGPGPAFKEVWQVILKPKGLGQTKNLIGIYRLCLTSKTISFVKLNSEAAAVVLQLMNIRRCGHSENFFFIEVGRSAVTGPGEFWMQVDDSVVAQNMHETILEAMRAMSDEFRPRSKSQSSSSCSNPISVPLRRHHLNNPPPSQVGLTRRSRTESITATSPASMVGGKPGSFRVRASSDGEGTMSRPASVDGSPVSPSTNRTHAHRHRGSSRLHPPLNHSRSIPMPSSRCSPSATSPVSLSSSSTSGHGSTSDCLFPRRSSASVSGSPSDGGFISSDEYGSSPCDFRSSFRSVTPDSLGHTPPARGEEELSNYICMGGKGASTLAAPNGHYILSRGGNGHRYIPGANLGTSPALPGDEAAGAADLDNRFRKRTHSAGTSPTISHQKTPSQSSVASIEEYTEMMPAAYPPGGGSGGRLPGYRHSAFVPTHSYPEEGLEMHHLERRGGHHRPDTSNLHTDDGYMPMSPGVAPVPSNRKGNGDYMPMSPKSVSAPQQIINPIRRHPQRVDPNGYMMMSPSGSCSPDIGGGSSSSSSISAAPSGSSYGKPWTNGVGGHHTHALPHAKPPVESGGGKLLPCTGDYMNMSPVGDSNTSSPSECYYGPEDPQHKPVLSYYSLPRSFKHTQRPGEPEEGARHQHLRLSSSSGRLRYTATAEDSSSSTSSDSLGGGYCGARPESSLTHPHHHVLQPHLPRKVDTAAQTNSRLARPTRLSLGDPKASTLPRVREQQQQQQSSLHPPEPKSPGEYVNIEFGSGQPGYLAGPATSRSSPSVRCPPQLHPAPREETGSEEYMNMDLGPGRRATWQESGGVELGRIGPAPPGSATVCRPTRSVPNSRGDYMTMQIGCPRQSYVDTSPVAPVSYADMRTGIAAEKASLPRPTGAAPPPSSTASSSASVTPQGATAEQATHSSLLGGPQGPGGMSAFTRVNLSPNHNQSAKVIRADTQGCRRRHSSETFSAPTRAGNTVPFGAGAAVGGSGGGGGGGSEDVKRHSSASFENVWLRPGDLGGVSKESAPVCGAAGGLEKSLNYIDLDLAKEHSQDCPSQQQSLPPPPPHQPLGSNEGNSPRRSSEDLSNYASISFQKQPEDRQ
Experimental: as §1, §2

[3] = system: primary mouse hepatocytes; test: Hepatic glucose production (HGP) in primary hepatocytes upon glucagon treatment; type: cell-based; conditions: WT primary hepatocytes
Experimental: Hepatic glucose production. The primary mouse hepatocytes were isolated from 8-12-week-old male mice. Cells were resuspended in DMEM medium (2% FBS and 1% penicillin-streptomycin) for 3 h and cultured in HGP buffer (118 mM NaCl, 2.5 mM CaCl2, 4.8 mM KCl, 25 mM NaHCO3, 1.1 mM KH2PO4, 1.2 mM MgSO4, […], 0.6% BSA, 10 mM HEPES, 10 mM sodium DL-lactate, and 5 mM pyruvate, pH 7.4). Then cells were pretreated with 50 nM glucagon for 30 min, followed by 10 nM insulin treatment for 3 h, and glucose level in the medium was measured using Amplex Red Glucose Assay. The results were normalized by cell protein abundance.

[4] = ERα deficient primary hepatocytes

YGRKKRRQRRRTKASGMALLHEPLNRPQLKIPLERDSSKPAVYNY ({FITC}-YGRKKRRQRRRTKASGMALLHEPLNRPQLKIPLERDSSKPAVYNY) [AF1 peptide]
interaction with IRS1 protein domains (IRS1 protein domains): interacted with the IRS1 1-300 domain | enhancement in insulin-stimulated AKT phosphorylation at S473 [1]: 210% | enhancement in insulin-stimulated AKT phosphorylation at T308 [1]: 82% | increase in IRS1 protein levels ([1]; FIG. 6J): 90% | increase in IRS1 protein levels [2, 4]: 80% | increase in pAKT-S473 protein levels [2, 4]: 46% | increase in pAKT-T308 protein levels [2, 4]: 50% | rescue of ERα deficiency-induced insulin resistance ([2]; compared to ERαF/F hepatocytes): partially rescued | decrease in pIRS1-S302 (IRS1): 75% | increase in IRS1 protein levels (IRS1; FIG. 6G): 50% | glucagon-induced hepatic glucose production (HGP) [3]: did not impair | enhancement of insulin-mediated suppression of HGP ([3]; under glucagon challenge): 22%
